Type in all cases: in vivo
Experiment [1] has as its system Erysiphe graminis. Description: Control of Erysiphe graminis infection on sprayed winter wheat, assessed after 30 days. Conditions: spray, average of 4 replicates. The protocol:
Winter wheat was sprayed with cyprodinil, PBO and mixtures of the two. Thirty three days after application the winter wheat was assessed for levels of Leptosphaeria nodorum compared with untreated cereal, whereby the level of control could be calculated. Results (average of 4 replicates) are shown below. In a similar experiment levels of Erysiphe graminis infection were determined after 30 days. Results (average of 4 replicates) are shown below.

Experiment [2] relates to Elysiphe graminis. Description: Control of Elysiphe graminis infection on sprayed winter wheat, assessed after 14 days. Conditions: spray, average of 3 replicates. The protocol:
Winter wheat was sprayed with cyprodinil, PBO and mixtures of the two. Thirty three days after application the winter wheat was assessed for levels of Leptosphaeria nodorum compared with untreated cereal, whereby the level of control could be calculated. Results (average of 4 replicates) are shown below. In a similar experiment levels of […] graminis infection were determined after 14 days. Results (average of 3 replicates) are shown below.

The subject of experiment [3] is Leptosphaeria nodorum and Septoria tritici mixed infection. In words: Control of Leptosphaeria nodorum and Septoria tritici mixed infection on sprayed winter wheat, assessed 23 days after application. The settings on record: spray, average of 4 replicates. The protocol:
Winter wheat was sprayed with cyprodinil, PBO and mixtures of the two. Thirty three days after application the winter wheat was assessed for levels of Leptosphaeria nodorum compared with untreated cereal, whereby the level of control could be calculated. Results (average of 4 replicates) are shown below. In a similar experiment, levels of Leptosphaeria nodorum and Septoria tritici mixed infection were assessed 23 days after application. Results (average of 4 replicates) are shown below.

Experiment [4] has as its system Leptosphaeria nodorum. Description: Control of Leptosphaeria nodorum on sprayed winter wheat, assessed 33 days after application. The settings on record: spray, vs untreated, average of 4 replicates. The protocol: Winter wheat was sprayed with cyprodinil, PBO and mixtures of the two. Thirty three days after application the winter wheat was assessed for levels of Leptosphaeria nodorum compared with untreated cereal, whereby the level of control could be calculated. Results (average of 4 replicates) are shown below.

As for `CCCCOCCOCCOCc1cc2c(cc1CCC)OCO2` [PBO, piperonyl butoxide], the “% control” value in experiment [1] (300 g ai / ha), in experiment [2] (300 g ai/ha), in experiment [3] (300 g ai / ha) and in experiment [4] (300 g ai / ha) was 0.0% each time.

`Cc1cc(C2CC2)nc(Nc2ccccc2)n1` [cyprodinil]: the “% control” value in experiment [1] (600 g ai / ha) turned out to be 34.4%; in experiment [2] (150 g ai/ha) it was 35%; in experiment [2] (300 g ai/ha), 67%; in experiment [2] (600 g ai/ha), 98%; in experiment [3] (600 g ai / ha), 0.0%; in experiment [4] (600 g ai / ha), 23.1%.

The record behind these values is patent EP0830813B1, “Fungicidal compositions” (Aventis CropScience UK Limited, priority 1996, dated 1998).
